Test results published in PMC11597854 (2024).

Columns and labels:
[1] = test system: hTel23 (DNA, G4) TAGGGTTAGGGTTAGGGTTAGGG; experiment: CD titration, Hill fit; settings: 80 mM KCl, 10 mM KH2PO4 (90 mM K+), pH 7.3, 5 °C, up to 0.9% DMSO, apparent
[2] = test system: hTel23 (DNA, G4) TAGGGTTAGGGTTAGGGTTAGGG; experiment: CD melting; settings: 80 mM KCl, 10 mM KH2PO4 (90 mM K+); pH 7.3; 5 equiv. complex (25 µM), 5 µM DNA, 0.5 °C/min

Structure (SMILES) | Kd ([1]; 290 nm (hybrid form)) | ΔTM [2] | Kd ([1]; 272 nm (parallel form), 290 nm (hybrid) gives 17)
CC(=O)NCCN1[C]N2C=CC=CC2=C1.CC(=O)NCCN1[C]N2C=CC=CC2=C1.[Au+] | 9.7 µM | −13 °C | –
CCN1[C]N(CC)C(c2ccc(OC)cc2)=C1c1ccc(OC)cc1.CCN1[C]N(CC)C(c2ccc(OC)cc2)=C1c1ccc(OC)cc1.[Au+] | – | −2 °C | –
[Au+].[C]1C2=C(CCCC2)N2CCCCN12.[C]1C2=C(CCCC2)N2CCCCN12 | – | −4 °C | 5.1 µM
[Au+].[C]1N(Cc2ccccn2)C=CN1c1c2ccccc2nc2ccccc12.[C]1N(Cc2ccccn2)C=CN1c1c2ccccc2nc2ccccc12 | – | +1 °C | –
